These results are taken from patent publication US10849854B2, “Process for preparing a composition comprising a high concentration of one or more avermectins” (GALDERMA SA, priority 2015, dated 2020).

The nature of the data set: Solubility of ivermectin in propylene glycol/oleyl alcohol (1/1) solubilizing medium. The class given is physicochemical. The following applies: mixed propylene glycol/oleyl alcohol (1/1) solubilizing medium. From the text: Although these prior attempts have allowed formulating ivermectin in emulsions which remain stable despite temperature and/or pH variations, it has been observed that the amount of ivermectin that could be introduced into these emulsions was limited. Specifically, at most 33% by weight of ivermectin can be fully dissolved in a mixed propylene glycol/oleyl alcohol (1/1) solubilizing medium. Beyond this concentration, ivermectin tends to crystallize in the active phase before the emulsion is prepared and/or in the resulting emulsion, optionally when subjected to freeze/thaw cycles. Increasing the amount of glycols in the emulsion would raise other issues, since the emulsion stability would be detrimentally affected and the emulsion would become too sticky to be commercially acceptable. Therefore, from a practical point of view, it has not been possible so far to formulate emulsions comprising 2% or more by weight of ivermectin, which remains fully dissolved ivermectin over the time.

Turning to ivermectin, the “Amount of ivermectin that can be fully dissolved” value is given as “at most 33 % by weight”.
